Counter-ions that a name gives are not always drawn.

Sequence of human GPR119 (Q8TDV5 whole entry): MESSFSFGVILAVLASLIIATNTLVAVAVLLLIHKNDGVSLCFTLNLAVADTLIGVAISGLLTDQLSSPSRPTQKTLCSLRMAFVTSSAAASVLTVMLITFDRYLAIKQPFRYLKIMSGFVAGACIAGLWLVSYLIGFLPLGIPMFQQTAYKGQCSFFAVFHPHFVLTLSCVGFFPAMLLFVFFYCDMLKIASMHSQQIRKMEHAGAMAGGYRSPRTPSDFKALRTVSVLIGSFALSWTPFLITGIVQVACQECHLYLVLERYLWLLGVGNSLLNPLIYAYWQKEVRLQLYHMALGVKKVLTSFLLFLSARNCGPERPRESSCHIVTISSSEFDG

The assay has as its target human GPR119 (Homo sapiens (Human), UniProt Q8TDV5). Nature of the assay: AlphaScreen cAMP assay in Min-6/hGPR119 cells (GPR119 activation, intracellular cAMP). The format is cell-based. The note with it: MIN6 cells stably transfected with human GPR119; 45 minutes' incubation at RT; AlphaScreen cAMP Assay Kit. An outline of the steps: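 MIN6 cells stably expressing human GPR119 plated 10000 cells/well and held 24 h at 37° C. Compounds applied in stimulating buffer, pH 7.4, with 0.5 mM IBMX, 0.1% BSA, 1% DMSO final, for 45 min at RT. Intracellular cAMP read by AlphaScreen.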
(In general: Bead proximity is the source of the signal in Alpha formats.)
`O=C1NN=C(N2CCc3nc(-c4ccccc4)oc3C2)C2CC12` (centres unmarked) [Example 135, 5-(2-phenyl-4,5,6,7-tetrahydro-4H-oxazolo[5,4-c]pyridin-5-yl)-3,4-diaza-bicyclo[4.1.0]hept-4-en-2-one] gave an EC50 of 391 nM.

`O=C1NN=C(c2ccc3nc(Cc4ccccc4)oc3c2)C2CC12` (centres unmarked) [Example 136, 5-(2-benzyl-benzoxazol-6-yl)-3,4-diaza-bicyclo[4.1.0]hept-4-en-2-one] gave an EC50 of 2020 nM.

The compound `O=C1NN=C(c2ccc3nc(-c4ccc(OCCN5CCOCC5)cc4)oc3c2)C2CC12` (centres unmarked) [Example 137, 5-{2-[4-(2-morpholin-4-yl-ethoxy)-phenyl]-benzoxazol-6-yl}-3,4-diaza-bicyclo[4.1.0]hept-4-en-2-one] displayed a concentration giving a half-maximal response (EC50) of 497 nM.

`O=C1CC(C2CC2)C(N2CCc3nc(-c4ccccc4)oc3C2)=NN1` (centres unmarked) [Example 138, 5-cyclopropyl-6-(2-phenyl-6,7-dihydro-4H-oxazolo[5,4-c]pyridin-5-yl)-4,5-dihydro-2H-pyridazin-3-one] displayed a concentration for a half-maximal effect (EC50) of 1310 nM.

Compound `CC1CC(c2ccc3nc(-c4cccs4)oc3c2)=NNC1=O` (centres unmarked) [Example 139, 4-methyl-6-(2-thiophen-2-yl-benzoxazol-6-yl)-4,5-dihydro-2H-pyridazin-3-one] had a half-maximal effective concentration (EC50) of 1560 nM.

On to `CCCCC1CC(c2ccc3nc(-c4cccs4)oc3c2)=NNC1=O` (centres unmarked) [Example 140, 4-butyl-6-(2-thiophen-2-yl-benzoxazol-6-yl)-4,5-dihydro-2H-pyridazin-3-one], for which the EC50 is over 10000 nM.

Take `CCC1CC(c2ccc3nc(-c4cccs4)oc3c2)=NNC1=O` (centres unmarked) [Example 141, 4-ethyl-6-(2-thiophen-2-yl-benzoxazol-6-yl)-4,5-dihydro-2H-pyridazin-3-one]: the EC50 stood at 7330 nM.

`CC1NC(=O)NN=C1c1ccc2nc(-c3ccccc3)oc2c1` (centres unmarked) [Example 142, 5-methyl-6-(2-phenyl-benzoxazol-6-yl)-4,5-dihydro-2H-[1,2,4]triazin-3-one] came in with an EC50 of 539 nM.

In turn, `O=C1NCC(c2ccc3nc(-c4ccccc4)oc3c2)=NN1` [Example 143, 6-(2-phenyl-benzoxazol-6-yl)-4,5-dihydro-2H-[1,2,4]triazin-3-one] returned a half-maximal effective concentration (EC50) of 397 nM.

As for `CCC1NC(=O)NN=C1c1ccc2nc(-c3ccccc3)oc2c1` (centres unmarked) [Example 144, 5-ethyl-6-(2-phenyl-benzoxazol-6-yl)-4,5-dihydro-2H-[1,2,4]triazin-3-one], a half-maximal response (EC50) required 987 nM.

For `CC[C@H]1C(c2ccc3nc(-c4ccccc4)oc3c2)=NNC(=O)[C@H]1C` [Example 146, (4S,5R)-5-ethyl-4-methyl-6-(2-phenyl-1,3-benzoxazol-6-yl)-2,3,4,5-tetrahydropyridazin-3-one], the midpoint of the response, the EC50, lay at 8850 nM.

Consider `CC[C@H]1C(c2ccc3nc(-c4ccccc4)oc3c2)=NNC(=O)[C@@H]1C` [Example 147, (4R,5R)-5-ethyl-4-methyl-6-(2-phenyl-1,3-benzoxazol-6-yl)-2,3,4,5-tetrahydropyridazin-3-one], for which a half-maximal effect (EC50) was put at 79 nM. Compared with the last compound, the EC50 is about 110-fold lower.

With `CCC1CC(=O)NN=C1c1ccc2nc(-c3cccc(OCCN4CCCCC4)c3)oc2c1` (centres unmarked) [Example 148, 5-ethyl-6-{2-[3-(2-piperidin-1-yl-ethoxy)-phenyl]-benzoxazol-6-yl}-4,5-dihydro-2H-pyridazin-3-one], the concentration giving a half-maximal response (EC50) came to 1560 nM. Compared with the last compound, the EC50 is about 20-fold higher.

Turning to `CCC1CC(=O)NN=C1c1ccc2nc(-c3cccc(OCCN4CCCCCC4)c3)oc2c1` (centres unmarked) [Example 149, 6-{2-[3-(2-azepan-1-yl-ethoxy)-phenyl]-benzoxazol-6-yl}-5-ethyl-4,5-dihydro-2H-pyridazin-3-one], the 50% effective concentration (EC50) is 567 nM. This EC50 is about 2.8-fold lower than that of the compound before.

For the compound `CCC1CC(=O)NN=C1c1ccc2nc(-c3cccc(OCc4ccncc4)c3)oc2c1` (centres unmarked) [Example 150, 5-ethyl-6-{2-[3-(pyridin-4-ylmethoxy)-phenyl]-benzoxazol-6-yl}-4,5-dihydro-2H-pyridazin-3-one], the EC50 was determined as 1260 nM.

As for `CCC1CC(=O)NN=C1c1ccc2nc(-c3cccc(OCCN4C(C)(C)CCCC4(C)C)c3)oc2c1` (centres unmarked) [Example 151, 5-ethyl-6-(2-{3-[2-(2,2,6,6-tetramethyl-piperidin-1-yl)-ethoxy]-phenyl}-benzoxazol-6-yl)-4,5-dihydro-2H-pyridazin-3-one], the EC50 came to 116 nM.

In turn, `CCC1CC(=O)NN=C1c1ccc2nc(-c3cccc(OCCCN4CCCCC4)c3)oc2c1` (centres unmarked) [Example 152, 5-ethyl-6-{2-[3-(3-piperidin-1-yl-propoxy)-phenyl]-benzoxazol-6-yl}-4,5-dihydro-2H-pyridazin-3-one] came in with an EC50 of 1080 nM.

The compound `CCC1CC(=O)NN=C1c1ccc2nc(-c3cccc(OCCN4CCC(C#N)CC4)c3)oc2c1` (centres unmarked) [Example 153, 1-(2-{3-[6-(4-ethyl-6-oxo-1,4,5,6-tetrahydro-pyridazin-3-yl)-benzoxazol-2-yl]-phenoxy}-ethyl)-piperidine-4-carbonitrile] had an EC50 of 735 nM.

`CCC1CC(=O)NN=C1c1ccc2nc(-c3cccc(OCCN(C(C)C)C(C)C)c3)oc2c1` (centres unmarked) [Example 154, 6-{2-[3-(2-diisopropylamino-ethoxy)-phenyl]-benzoxazol-6-yl}-5-ethyl-4,5-dihydro-2H-pyridazin-3-one]: the response was half-maximal at 424 nM (EC50).

Turning to `CCC1CC(=O)NN=C1c1ccc2nc(-c3cccc(OCCN4CCN(C(=O)OC(C)(C)C)CC4)c3)oc2c1` (centres unmarked) [Example 155, tert-butyl 4-(2-{3-[6-(4-ethyl-6-oxo-1,4,5,6-tetrahydro-pyridazin-3-yl)-benzoxazol-2-yl]-phenoxy}-ethyl)-piperazine-1-carboxylate], the EC50 turned out to be 7750 nM.

The compound `CCC1CC(=O)NN=C1c1ccc2nc(-c3cccc(OCCN(CC(C)C)CC(C)C)c3)oc2c1` (centres unmarked) [Example 156, 6-{2-[3-(2-diisobutylamino-ethoxy)-phenyl]-benzoxazol-6-yl}-5-ethyl-4,5-dihydro-2H-pyridazin-3-one] showed a concentration giving a half-maximal response (EC50) of 248 nM.

Turning to `CCC1CC(=O)NN=C1c1ccc2nc(-c3cccc(OCCN4CCN(C(C)CC)CC4)c3)oc2c1` (centres unmarked) [Example 157, 6-(2-{3-[2-(4-sec-butyl-piperazin-1-yl)-ethoxy]-phenyl}-benzoxazol-6-yl)-5-ethyl-4,5-dihydro-2H-pyridazin-3-one], the EC50 was determined as 2030 nM. This EC50 lies about 8.2-fold higher than the previous one.

For `CCC1CC(=O)NN=C1c1ccc2nc(-c3ccc(OCc4ccc(S(C)(=O)=O)cc4)cc3)oc2c1` (centres unmarked) [Example 158, 5-ethyl-6-{2-[4-(4-methanesulphonyl-benzoxy)-phenyl]-benzoxazol-6-yl}-4,5-dihydro-2H-pyridazin-3-one], the midpoint of the response, the EC50, lay at 1960 nM.

Turning to `CCC1CC(=O)NN=C1c1ccc2nc(-c3ccc(OCCN4CCCC4)cc3)oc2c1` (centres unmarked) [Example 159, 5-ethyl-6-{2-[4-(2-pyrrolidin-1-yl-ethoxy)-phenyl]-benzoxazol-6-yl}-4.5-dihydro-2H-pyridazin-3-one], the response was half-maximal at 623 nM (EC50). Compared with the last compound, the EC50 is about 3.1-fold lower.

`CCC1CC(=O)NN=C1c1ccc2nc(-c3ccc(OCCN(CC(C)C)CC(C)C)cc3)oc2c1` (centres unmarked) [Example 160, 6-{2-[4-(2-diisobulylamino-ethoxy)-phenyl]-benzoxazol-6-yl}-5-ethyl-4,5-dihydro-2H-pyridazin-3-one]: the half-maximal effective concentration (EC50) worked out at 124 nM. Compared with the last compound, the EC50 is about 5-fold lower.

On to `CCC1CC(=O)NN=C1c1ccc2nc(-c3ccc(OCCCN4CCCCC4)cc3)oc2c1` (centres unmarked) [Example 161, 5-ethyl-6-{2-[4-(3-piperidin-1-yl-propoxy)-phenyl]-benzoxazol-6-yl}-4,5-dihydro-2H-pyridazin-3-one x HCl], for which the concentration giving a half-maximal response (EC50) was 293 nM.

For orientation: EC50 means the concentration at which the effect is half-maximal. Higher therefore signals weaker potency.

For the origin of these results see US8772323B2, “Benzoxazole- and tetrahydrobenzoxazole-substituted pyridazinones as GPR119 agonists” (Boehringer Ingelheim International GmbH, priority 2010, dated 2014).
